Measured values reported in ChEMBL document CHEMBL1201862, “PubChem BioAssay data set” (2004).
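How tested: cells in 96-well plates exposed to compound for 48 hours at five concentrations. GI50 = concentration required for 50% inhibition of growth.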 Active and inactive are the calls of the source. Cut-off read from the data, not from the text of the source: active = GI50 up to about 1.1 µM and inactive = higher.

Assays:
Experiment in all cases: NCI anticancer screen, dose series, 48 h
[1] = tested on: 786-0
[2] = tested on: A498
[3] = tested on: BT-549
[4] = tested on: CCRF-CEM
[5] = tested on: EKVX
[6] = tested on: HCC 2998
[7] = tested on: HOP-92
[8] = tested on: HT-29
[9] = tested on: Hs-578T
[10] = tested on: IGROV-1
[11] = tested on: M19-MEL
[12] = tested on: NCI-H460
[13] = tested on: NCI/ADR-RES
[14] = tested on: PC-3
[15] = tested on: SF-539
[16] = tested on: SK-MEL-28
[17] = tested on: SK-MEL-2
[18] = tested on: SK-OV-3
[19] = tested on: SR
[20] = tested on: UACC-62

| SMILES | GI50 [1] | GI50 [2] | GI50 [3] | GI50 [4] | GI50 [5] | GI50 [6] | GI50 [7] | GI50 [8] | GI50 [9] | GI50 [10] | GI50 [11] | GI50 [12] | GI50 [13] | GI50 [14] | GI50 [15] | GI50 [16] | GI50 [17] | GI50 [18] | GI50 [19] | GI50 [20] |
| --- | --- | --- | --- | --- | --- | --- | --- | --- | --- | --- | --- | --- | --- | --- | --- | --- | --- | --- | --- | --- |
| O=C(c1ccc(F)cc1)c1cccc(C(=O)c2ccc(F)cc2)n1 | 37.8 µM (inactive) | > 52.7 µM (inactive) | 12.2 µM (inactive) | > 100 µM (inactive) | > 100 µM (inactive) | > 100 µM (inactive) | 15.8 µM (inactive) | > 100 µM (inactive) | 25.6 µM (inactive) | 24.9 µM (inactive) | > 72.3 µM (inactive) | > 100 µM (inactive) | 90.8 µM (inactive) | > 100 µM (inactive) | 30.8 µM (inactive) | > 100 µM (inactive) | 27.7 µM (inactive) | 1.53 µM (inactive) | > 100 µM (inactive) | 44.2 µM (inactive) |
| CC(=O)CCCCCCCCCCCC[C@@H]1CC[C@H](C)[C@H](O)N1 | > 100 µM (inactive) | – | – | > 100 µM (inactive) | > 100 µM (inactive) | > 100 µM (inactive) | > 100 µM (inactive) | 38.3 µM (inactive) | – | > 100 µM (inactive) | 95.5 µM (inactive) | > 100 µM (inactive) | – | – | – | > 100 µM (inactive) | > 100 µM (inactive) | > 100 µM (inactive) | 90.4 µM (inactive) | 97.7 µM (inactive) |
| OCc1ccc2[n+](c1)CCC1c3ccccc3NC21 (centres undefined) | > 300 µM (inactive) | – | – | > 300 µM (inactive) | > 300 µM (inactive) | > 300 µM (inactive) | 230 µM (inactive) | > 300 µM (inactive) | – | > 300 µM (inactive) | 119 µM (inactive) | > 300 µM (inactive) | – | – | > 300 µM (inactive) | > 300 µM (inactive) | > 300 µM (inactive) | > 300 µM (inactive) | > 300 µM (inactive) | > 300 µM (inactive) |
| Cc1c(-c2coc(-c3ccccc3)n2)c(=O)n(-c2ccccc2)n1C | > 100 µM (inactive) | > 100 µM (inactive) | – | > 100 µM (inactive) | – | 0.1 µM (active) | > 100 µM (inactive) | 57.7 µM (inactive) | – | > 100 µM (inactive) | 56.2 µM (inactive) | > 100 µM (inactive) | – | – | > 100 µM (inactive) | > 100 µM (inactive) | > 100 µM (inactive) | > 100 µM (inactive) | 45.5 µM (inactive) | – |
| COC(=O)C[C@](O)(CCCC(C)(C)O)C(=O)O[C@@H]1C(OC)=C[C@]23CCCN2CCc2cc4c(cc2[C@H]13)OCO4 [OMACETAXINE MEPESUCCINATE] | 0.893 µM (active) | 0.0395 µM (active) | 3.6 µM (inactive) | 0.0215 µM (active) | 0.133 µM (active) | 0.0583 µM (active) | 0.0869 µM (active) | 0.115 µM (active) | 1.07 µM (active) | 0.129 µM (active) | 0.0194 µM (active) | – | 3.87 µM (inactive) | 3.01 µM (inactive) | 0.056 µM (active) | 0.111 µM (active) | 0.259 µM (active) | 0.122 µM (active) | 0.0327 µM (active) | 0.113 µM (active) |
| COc1cc(/C=C(\OC(C)=O)c2ccc3c(c2)OCO3)cc(OC)c1OC | 29 µM (inactive) | 16.1 µM (inactive) | – | 25.4 µM (inactive) | 15.9 µM (inactive) | > 10 µM (inactive) | 15.6 µM (inactive) | 22.3 µM (inactive) | – | 10.9 µM (inactive) | 14.9 µM (inactive) | 33 µM (inactive) | – | – | 18 µM (inactive) | 17.7 µM (inactive) | 22.8 µM (inactive) | 17.5 µM (inactive) | 8.2 µM (inactive) | 16.6 µM (inactive) |
| COc1cccc(NC(=S)Nn2c(C)nc3ccccc3c2=O)c1 | > 100 µM (inactive) | > 100 µM (inactive) | – | > 100 µM (inactive) | – | – | > 100 µM (inactive) | > 100 µM (inactive) | – | > 100 µM (inactive) | > 100 µM (inactive) | > 100 µM (inactive) | – | – | > 100 µM (inactive) | > 100 µM (inactive) | > 100 µM (inactive) | > 100 µM (inactive) | > 100 µM (inactive) | 71.6 µM (inactive) |
| Cc1cc2c(=O)n(-c3ccc(F)cc3)c(C)nc2c(C(=O)O)c1C | > 100 µM (inactive) | > 100 µM (inactive) | – | > 100 µM (inactive) | > 100 µM (inactive) | > 100 µM (inactive) | > 100 µM (inactive) | > 100 µM (inactive) | – | > 100 µM (inactive) | > 100 µM (inactive) | > 100 µM (inactive) | – | – | > 100 µM (inactive) | > 100 µM (inactive) | > 100 µM (inactive) | > 100 µM (inactive) | > 100 µM (inactive) | > 100 µM (inactive) |
| CCN(CCCl)CCNc1c2ccccc2nc2ccc(OC)cc12 | 0.254 µM (active) | 1.78 µM (inactive) | – | 0.104 µM (active) | 1.27 µM (inactive) | 0.847 µM (active) | 0.822 µM (active) | 0.267 µM (active) | – | 0.463 µM (active) | 0.703 µM (active) | 0.273 µM (active) | 1.35 µM (inactive) | – | 0.502 µM (active) | 1.52 µM (inactive) | 1.03 µM (active) | 1.35 µM (inactive) | – | 0.551 µM (active) |
| CC(C)c1cccc(C(C)C)c1NC(=O)C(=O)C(C(=O)c1ccccc1-c1ccccc1)C1OC(=O)c2ccccc21 (centres undefined) | 17.8 µM (inactive) | – | – | 13.8 µM (inactive) | > 10 µM (inactive) | 17.6 µM (inactive) | – | 17.9 µM (inactive) | – | 24.3 µM (inactive) | 17.1 µM (inactive) | 15 µM (inactive) | – | – | 12.6 µM (inactive) | 20.1 µM (inactive) | 14.9 µM (inactive) | – | 22.6 µM (inactive) | 17.5 µM (inactive) |
| CCc1cccc(C)c1NC(=O)CCc1nnc(S)[nH]1 | > 100 µM (inactive) | – | – | > 100 µM (inactive) | > 100 µM (inactive) | > 100 µM (inactive) | > 100 µM (inactive) | > 100 µM (inactive) | – | > 100 µM (inactive) | > 100 µM (inactive) | > 100 µM (inactive) | – | – | > 100 µM (inactive) | > 100 µM (inactive) | > 100 µM (inactive) | > 100 µM (inactive) | > 100 µM (inactive) | > 100 µM (inactive) |
| CCOP(=O)(C/C(O)=C1\C(=O)C(CCCCNC(=O)OC(C)(C)C)N(Cc2ccccc2)C1=O)OCC (centres undefined) | > 100 µM (inactive) | > 100 µM (inactive) | – | > 100 µM (inactive) | > 100 µM (inactive) | > 100 µM (inactive) | – | > 100 µM (inactive) | – | > 100 µM (inactive) | > 100 µM (inactive) | > 100 µM (inactive) | – | – | > 100 µM (inactive) | > 100 µM (inactive) | > 100 µM (inactive) | > 100 µM (inactive) | 69.2 µM (inactive) | > 100 µM (inactive) |
| CCOC(=O)c1cc2c(nc1N)-c1ncccc1CC2 | 82.2 µM (inactive) | 76.7 µM (inactive) | – | 20.4 µM (inactive) | 43.8 µM (inactive) | > 100 µM (inactive) | > 100 µM (inactive) | 16.4 µM (inactive) | – | 49.4 µM (inactive) | 89.5 µM (inactive) | 77.1 µM (inactive) | – | – | > 100 µM (inactive) | 36.6 µM (inactive) | > 100 µM (inactive) | 45.1 µM (inactive) | 18.7 µM (inactive) | 58.1 µM (inactive) |
| CN1CCCNCCN(CCc2ccccn2)CCCN(C)CC1 | 24.2 µM (inactive) | > 100 µM (inactive) | – | > 41.9 µM (inactive) | > 91.4 µM (inactive) | > 100 µM (inactive) | > 100 µM (inactive) | > 100 µM (inactive) | – | > 100 µM (inactive) | > 59.4 µM (inactive) | > 67.3 µM (inactive) | – | – | > 100 µM (inactive) | > 100 µM (inactive) | > 100 µM (inactive) | > 100 µM (inactive) | 29.1 µM (inactive) | > 100 µM (inactive) |
| C/C(=N\NS(=O)(=O)c1ccc(C)cc1)C(CN(C)C)C(c1ccccc1)c1c(O)c2ccccc2oc1=O (centres undefined) | > 100 µM (inactive) | > 100 µM (inactive) | > 100 µM (inactive) | > 100 µM (inactive) | > 100 µM (inactive) | – | 60 µM (inactive) | > 100 µM (inactive) | > 100 µM (inactive) | > 100 µM (inactive) | > 100 µM (inactive) | > 100 µM (inactive) | > 100 µM (inactive) | > 100 µM (inactive) | > 100 µM (inactive) | > 100 µM (inactive) | > 100 µM (inactive) | 99.1 µM (inactive) | > 60 µM (inactive) | > 86.3 µM (inactive) |
| O=C(c1cc2ccccc2o1)N(Cc1ccccc1)c1ccccc1 | 20.2 µM (inactive) | 34.4 µM (inactive) | – | 13.6 µM (inactive) | 27 µM (inactive) | 23.4 µM (inactive) | 20.7 µM (inactive) | 22.8 µM (inactive) | – | 35.5 µM (inactive) | 21.7 µM (inactive) | 26.9 µM (inactive) | – | – | – | 36.9 µM (inactive) | 33.8 µM (inactive) | 33.2 µM (inactive) | 26.9 µM (inactive) | 14.4 µM (inactive) |
| CC1CCC(=O)NCCCCC(=O)N1 (centres undefined) | > 100 µM (inactive) | > 100 µM (inactive) | – | > 100 µM (inactive) | > 100 µM (inactive) | > 100 µM (inactive) | > 100 µM (inactive) | > 100 µM (inactive) | – | > 100 µM (inactive) | > 100 µM (inactive) | > 100 µM (inactive) | – | – | > 100 µM (inactive) | > 100 µM (inactive) | > 100 µM (inactive) | > 100 µM (inactive) | > 100 µM (inactive) | > 100 µM (inactive) |
